Entries after “also recorded” stand apart in the source; their conditions may differ.
Assays:
Type in all cases: in vivo, human
[1] = Phase 1 Part A single ascending dose (SAD) and food effect/pH cohort, blood pressure and safety, healthy participants; conditions: for Time of maximum mean DBP reduction / Time of maximum mean SBP reduction: within 12 h post dose
Procedure: (§1) The study was performed in 3 parts in 112 healthy male and female participants, including 24 Japanese participants. Female participants were to be not of childbearing potential. The present study was designed to evaluate the safety and tolerability, PK, and exploratory PD of an oral suspension of Compound A. Parts A and B (Cohort B1 only) enrolled healthy participants and was conducted at a site in The Netherlands and Part B (Cohort B2 to B5) enrolled healthy non-Japanese participants and was conducted at a site in the United Kingdom (UK). Part C enrolled healthy Japanese participants and was conducted at the same site in the UK.
Part A was an SAD study in a planned number of 6 sequential dose escalation cohorts (3, 10, 30, 100, 150, or 250 mg) of 8 healthy participants (6 active+2 placebo) each, under fasted conditions. Eligible participants in Part A (excluding those in Cohort A7 [food effect (FE)/pH cohort]) received a single administration of study drug (Compound A or placebo) under fasted conditions. In Cohort A1 to Cohort A6, sentinel dosing was employed (1 active+1 placebo, followed after 48 hours by the remaining participants of the cohort [5 active+1 placebo]). […] In addition to the 6 ascending dose cohorts, a cohort of 6 healthy participants (Cohort A7; 6 active, 100 mg Compound A) was included to assess the effect of food and pH on the bioavailability of Compound A in a 3-period, open-label, fixed-sequence, crossover design (FE/pH cohort).
(§2) Physical examinations, vital sign measurements (including orthostasis testing in Cohort A6, Cohort B3 to B5, and C1 to C3 at selected time points), 12-lead electrocardiogram (ECG), and clinical laboratory evaluations were performed at selected times throughout the study. In addition, Holter monitoring was performed for the first 24 hours post dose on Day 1 in Part A (not in FE/pH cohort), and also for the first 24 hours post dose on Day 1 and Day 14 in Parts B and C. Participants were closely monitored for adverse events (AEs). Blood samples were collected for up to 14 days (follow-up visit) after (last) study drug administration for PK analysis. In addition, blood and urine were collected for exploratory biomarker assessments and for biobanking of samples for potential analyses. Urine was collected for potential PK analysis for up to 96 hours after a single dose of Compound A or placebo was administered in the SAD part, and for up to 24 hours after the first (morning) dose of study drug on Day 1 and for up to 24 hours after the last (morning) dose of study drug on Day 14 in the MAD parts.

[2] = Phase 1 Part C MAD, blood pressure, healthy Japanese participants
Procedure: as §1
Part C was a MAD study in 3 sequential dose escalation cohorts (30 mg BID, 60 mg BID, and 90 mg BID) of 8 healthy Japanese participants (6 active+2 placebo) each. Eligible participants in Cohorts C1 to C3 received study drug (Compound A or placebo) administered orally for 14 days.
as §2

[3] = Phase 1 Part B multiple ascending dose (MAD), blood pressure, healthy participants
Procedure: as §1
Part B was a MAD study in a planned number of 6 sequential dose escalation cohorts (10 mg QD, 30 mg QD, 30 mg BID, 60 mg BID, 125 mg BID, and ≤250 mg BID) of 8 healthy participants (6 active+2 placebo) each, under fasted conditions. However, Cohort B6 (≤250 mg BID) was cancelled because sufficient safety and PK data had been obtained at doses up to 125 mg BID. Eligible participants received study drug (Compound A or placebo) administered orally for 14 days.
as §2

[4] = Phase 2 IPF cohort safety: adverse events, low blood pressure criteria, dose reductions
Procedure: A total of 278 participants with IPF were randomized and 276 participants were treated as of […] analyses data cut-off (4 Aug. 2022). Male and female participants ≥40 years of age with IPF and percent predicted forced vital capacity (ppFVC) ≥40% and percent predicted DLCO (ppDLCO) ≥25%; diagnosed within 7 years of screening; having a centrally-read chest HRCT obtained at screening that was consistent with UIP or probable UIP, or having a lung biopsy consistent with UIP, were eligible to enter the study. The mean baseline ppFVC for all subjects was 76.5%. In the primary IPF cohort, participants were randomized (1:1:1) to receive 30 mg or 60 mg Compound A or placebo (PBO) twice daily for 26 weeks. Participants were stratified by standard of care (SoC) IPF therapy (pirfenidone versus nintedanib versus none) and region (Japan versus Rest of World) at randomization.
Patient experiences any of the following, confirmed by retest within 15 minutes: • Seated systolic blood pressure <85 mmHg • Seated diastolic blood pressure <55 mmHg • Orthostatic hypotension
Patient experiences symptoms that, in the investigator's opinion, could be associated with a reduction in blood pressure and also experiences at least one of the following, confirmed by retest within 15 minutes: • Seated systolic blood pressure <100 mmHg or seated diastolic blood pressure <60 mmHg • Decrease of seated systolic blood pressure of ≥20 mmHg from the previous visit or decrease of seated diastolic blood pressure of ≥10 mmHg from the previous visit • Orthostatic hypotension • Orthostatic tachycardia

[5] = 100 mg fasted + famotidine (A7)
[6] = Active Total (30 mg and 60 mg groups)

For `CCCN(C)C(=O)OCc1c(-c2ccc(O[C@H]3CCC[C@H](C(=O)O)C3)c(C)n2)nnn1C` [Compound A, (1S,3S)-3-((2-methyl-6-(1-methyl-5-(((methyl(propyl)carbamoyl)-oxy)methyl)-1H-1,2,3-triazol-4-yl)pyridin-3-yl)oxy)cyclohexane-1-carboxylic acid], the “Time of maximum mean DBP reduction” value ([1]; 100 mg fasted (A7)) was 5 h, the “Time of maximum mean SBP reduction” value ([1]; 100 mg fasted (A7)) was 8 h and the “Time of maximum mean DBP reduction” value [1, 5] was 6 h. The “Time of maximum mean SBP reduction” value [1, 5] was 6 h, the “Time of maximum mean DBP reduction” value ([1]; 100 mg fed (A7)) was 5 h and the “Time of maximum mean SBP reduction” value ([1]; 100 mg fed (A7)) was 6 h. For the same compound, the “Time of maximum mean DBP reduction” value ([1]; SAD 10 mg (A2)) was 6 h, the “Time of maximum mean SBP reduction” value ([1]; SAD 10 mg (A2)) was 8 h and the “Time of maximum mean DBP reduction” value ([1]; SAD 30 mg (A3)) was 5 h. For the same compound, the “Time of maximum mean SBP reduction” value ([1]; SAD 30 mg (A3)) was 4 h, the “Time of maximum mean DBP reduction” value ([1]; SAD 100 mg (A4)) was 5 h and the “Time of maximum mean SBP reduction” value ([1]; SAD 100 mg (A4)) was 2 h. The “Time of maximum mean DBP reduction” value ([1]; SAD 150 mg (A5)) was 6 h, the “Time of maximum mean SBP reduction” value ([1]; SAD 150 mg (A5)) was 6 h and the “Effect on SBP and DBP” value ([1]; SAD cohorts) was “decreased SBP and DBP dose dependently, reversibly, and mostly asymptomatically with minimal effect on heart rate”. For the same compound, the Safety and tolerability ([1]; single and multiple dose oral administration, healthy participants) was “generally safe and well tolerated”, the “Time after dosing of maximum BP reduction” value ([1]; single and multiple dose, healthy participants) was 4 to 8 h and the “Maximum of mean (±SD) reduction in SBP from baseline” value ([2]; Japanese MAD 30 mg BID (C1)) was 15.0 ± 6.84 mmHg. The “Time of maximum mean SBP reduction” value ([2]; Japanese MAD 30 mg BID (C1)) was 1-4 Day-h, the “Time of maximum mean DBP reduction” value ([2]; Japanese MAD 90 mg BID (C2)) was 1-6 Day-h and the “Time of maximum mean SBP reduction” value ([2]; Japanese MAD 90 mg BID (C2)) was 1-6 Day-h. The “Reductions in mean BP” value ([2]; Japanese MAD cohorts) was “no clear Compound A dose-dependent BP reduction trend”, the Mean DBP ([3]; MAD 60 mg BID, D 14 320 h) was 63 mmHg and the Mean DBP ([3]; MAD 125 mg BID, D 15 336 h) was 63 mmHg. The “Reductions in BP vs placebo” value ([3]; MAD BID groups) was “no clear differences between placebo and the Compound A groups”, the “Reductions in mean SBP and DBP” value ([3]; MAD QD groups) was “reductions generally occurred in a Compound A dose-dependent manner” and the “Dose reductions to 10 mg BID due to protocol-defined low BP criteria, %” value ([4]; 30 mg BID) was 7.7%. The “Dose reductions to 10 mg BID due to protocol-defined low BP criteria, %” value ([4]; 60 mg BID) was 6.5%, the “Risk of orthostatic intolerance, orthostatic hypotension or low BP criteria vs PBO” value ([4]; 60 mg BID) was “lowest frequencies of orthostatic intolerance, orthostatic hypotension, or pre-specified symptomatic or asymptomatic low BP criteria; also recorded: not associated with any increased risk of orthostatic intolerance, orthostatic hypotension, orthostatic tachycardia, or symptomatic or asymptomatic low BP” and the “Subjects discontinuing study treatment due to a TEAE, %” value [4, 6] was “(8.2) %”. The “Subjects who died due to a TEAE, %” value [4, 6] was “(3.8) %”, the “Subjects who died, %” value [4, 6] was “(4.9) %” and the “Subjects with at least one AESI, %” value [4, 6] was “(14.7) %”. For the same compound, the “Subjects with at least one TEAE related to the study treatment, %” value [4, 6] was “(26.1) %”, the “Subjects with at least one TEAE, %” value [4, 6] was “(75.0) %” and the “Subjects with at least one TESAE, %” value [4, 6] was “(10.9) %”.
